Laboratory results published in US8198325B2, “Unsaturated alkyl esters of 5-aminolevulinic acid, their preparation and their use” (Industry Foundation of Chonnam National University, priority 2006, dated 2012).

How the values were obtained:
[1] = system: Malignant melanoma (TMX 13); experiment: Cytotoxicity test (cell survival), MTT assay, TXM 13; type: cell-based; conditions: 24 hours
Procedure: (§1) 3. Cytotoxicity Test (Cell Survival Test)
(§2) Cytotoxicity was conducted through an MTT assay (Chemicon, Serologicals Corporation, USA) as follows.
(§3) Cells were seeded at a density of 3×10^4 cells/well in 96-well plates (Nunc Do, Denmark).
(§4) When the cells were at a confluence of about 60˜70%, 24 hours after seeding, the media was exchanged for 100 μl of fresh, serum-free media containing various respective concentrations of ALA or ALA-ester, after which the cells were incubated for an additional 24 hours.
(§5) An MTT solution (0.5 mg/mL) was added in an amount of […] to each well, followed by incubation for 4 hours to form formazan crystals. A color-developing solution (isopropanol with 0.04 N HCl) was added in an amount of […] per well to solubilize the formazan crystals.
(§6) The plates were measured for absorbance at 570 nm using an ELISA reader (EMAX, Molecular Device, USA).
(4) Malignant Melanoma (TMX 13)

[2] = system: Human epidermal keratinocyte (HEK); experiment: Cytotoxicity test (cell survival), MTT assay, HEK; type: cell-based; conditions: 24 hours; for MTT absorbance (OD): 570 nm; for Cell survival Avg (%) ± SD (%): Table 3; for activity at 10 µM / activity at 2000 µM / activity at 50 µM / activity at 100 µM / activity at 500 µM / activity at 1000 µM / activity at 5000 µM: Homo sapiens, Table 2, read-out: Cell survival (% of control C, in brackets); for activity at 10 µM: HEK001, 0.01 mM; for activity at 2000 µM: HEK2, 2 mM; for activity at 50 µM / activity at 100 µM / activity at 500 µM / activity at 1000 µM / activity at 5000 µM: Keratinocyte
Procedure: as §1, §2, §3, §4, §5, §6
(1) Human Epidermal Keratinocyte (HEK)
Cell survival of the human epidermal keratinocytes treated with ALA esters of the present invention and with ALA was compared. The results are summarized in Tables 1 and 2, which are represented in different manners depending on the measurements.

[3] = system: A431 cells; experiment: Fluorescence spectroscopy of PpIX synthesis in A431 cells (FIG. 1); type: cell-based; conditions: 4 hours incubation, excitation 405 nm, emission 605 nm
Procedure: 4. Fluorescence Spectroscopy
The synthesis of PpIX, induced by ALA and unsaturated alkyl esters of ALA in cells and skin tissues, was quantified using fluorescence spectroscopy.
The intensity of PpIX was measured on a fluorescence spectrophotometer (Uvikon, model 943) with excitation at 408 nm.
Each cell line was plated at a density of 2×10^5 cells in a 10 cm^2-dish (Falcon), and when the cells reached a confluent state of 70˜80%, serum-free media containing various concentrations (0.001˜1 mM) of ALA or ALA esters was added to the cells, followed by incubation for 4 hours.
After being washed once with PBS, the cells were detached with a 50% methanol solution containing 1M […] (HClO4) and scraped off using a Costar cell scraper.
The cells thus harvested were incubated for 5 min and centrifuged.
The fluorescence of the supernatant thus obtained was determined using a spectrofluorometer with excitation at 405 nm and emission at 605 nm.
The results are graphed in FIGS. 1 and 2.

[4] = system: Human dermal fibroblast (hF); experiment: Cytotoxicity test (cell survival), MTT assay, hF; type: cell-based; conditions: 24 hours
Procedure: as §1, §2, §3, §4, §5, §6
(2) Human Dermal Fibroblast (hF)

[5] = system: skin of ICR mice (epidermis, sebaceous gland); experiment: Cell death in skin tissue after ointment and LED irradiation, H&E (FIGS. 9, 10); type: in vivo; conditions: for Sebaceous gland morphology after irradiation: 24 hours after visible light 25 J/cm^2, FIG. 10; for Epidermis histology (H&E) after irradiation: 48 hours after visible light 25 J/cm^2, FIGS. 9B and 9C
Procedure: Ointments comprising ALA or the ALA esters of the present invention at various concentrations (5˜15%) were applied in a predetermined amount ([…]) to the back of shaved ICR mice.
1 and 4 hours after the application, the back was irradiated with LED visible light (dose 25 J/cm^2).
24, 48 and 72 hours after the irradiation, skin samples were taken from the back of the mice, stained with hematoxylin-eosin (H&E) and observed for cell death.

[6] = system: Squamous cell carcinoma (A431); experiment: Cytotoxicity test (cell survival), MTT assay, A431; type: cell-based; conditions: 24 hours
Procedure: as §1, §2, §3, §4, §5, §6
(3) Squamous Cell Carcinoma (A431)

COC(=O)CCC(=O)CN [ALA-1, 5-Aminolevulinic acid methyl ester, reference compound]
Cell survival Avg ± SD (%) ([1]; TXM 13, 0.01 mM): 104.69 ± 6.64% | Cell survival Avg ± SD (%) ([1]; TXM 13, 0.05 mM): 100.34 ± 4.39% | Cell survival Avg ± SD (%) ([1]; TXM 13, 0.1 mM): 87.37 ± 8.13% | Cell survival Avg ± SD (%) ([1]; TXM 13, 0.5 mM): 64.59 ± 3.95% | Cell survival Avg ± SD (%) ([1]; TXM 13, 1 mM): 69.86 ± 8.83% | Cell survival Avg ± SD (%) ([1]; TXM 13, 2 mM): 69.94 ± 13.42% | MTT absorbance (OD) ([2]; 0.01 mM): 2.952 OD | Cell survival Avg (%) ± SD (%) ([2]; 0.01 mM): 116.69 ± 1% | MTT absorbance (OD) ([2]; 0.05 mM): 3.482 OD | Cell survival Avg (%) ± SD (%) ([2]; 0.05 mM): 94.01 ± 0.71% | MTT absorbance (OD) ([2]; 0.1 mM): 3.313 OD | Cell survival Avg (%) ± SD (%) ([2]; 0.1 mM): 125.58 ± 1.05% | MTT absorbance (OD) ([2]; 0.5 mM): 3.421 OD | Cell survival Avg (%) ± SD (%) ([2]; 0.5 mM): 88.14 ± 0.95% | MTT absorbance (OD) ([2]; 1 mM): 3.435 OD | Cell survival Avg (%) ± SD (%) ([2]; 1 mM): 72.02 ± 3.52% | MTT absorbance (OD) ([2]; 2 mM): 3.093 OD | Cell survival Avg (%) ± SD (%) ([2]; 2 mM): 83.69 ± 1.54% | MTT absorbance (OD) ([2]; 5 mM): 2.398 OD | activity at 10 µM [2]: 88.8% | activity at 2000 µM [2]: 93% | activity at 50 µM ([2]; 0.05 mM): 104% | activity at 100 µM ([2]; 0.1 mM): 99.6% | activity at 500 µM ([2]; 0.5 mM): 103% | activity at 1000 µM ([2]; 1 mM): 103% | activity at 5000 µM ([2]; 5 mM): 69% | PpIX synthesis compared with ALA [3]: greater PpIX synthesis in A431 cells than did ALA | Cell survival Avg (%) ± SD (%) ([4]; 0.01 mM): 110.33 ± 15.01% | Cell survival Avg (%) ± SD (%) ([4]; 0.05 mM): 116.86 ± 17.63% | Cell survival Avg (%) ± SD (%) ([4]; 0.1 mM): 110.44 ± 17.98% | Cell survival Avg (%) ± SD (%) ([4]; 0.5 mM): 113 ± 22.58% | Cell survival Avg (%) ± SD (%) ([4]; 1 mM): 120.48 ± 10.91% | Cell survival Avg (%) ± SD (%) ([4]; 2 mM): 87.65 ± 14.77% | Sebaceous gland morphology after irradiation [5]: destroyed partially or wholly | Epidermis histology (H&E) after irradiation [5]: both necrosis and rejuvenation | Cell survival Avg (%) ± SD (%) ([6]; A431, 0.01 mM): 101.03 ± 0.71% | Cell survival Avg (%) ± SD (%) ([6]; A431, 0.05 mM): 103.06 ± 1.05% | Cell survival Avg (%) ± SD (%) ([6]; A431, 0.5 mM): 101.75 ± 3.52% | Cell survival Avg (%) ± SD (%) ([6]; A431, 1 mM): 101.45 ± 1.54% | Cell survival Avg (%) ± SD (%) ([6]; A431, 2 mM): 98.4 ± 1.2%

C=CCCCCOC(=O)CCC(=O)CN [ALA-6, 5-Aminolevulinic acid 5-hexenyl ester]
Cell survival Avg ± SD (%) ([1]; TXM 13, 0.01 mM): 92.05 ± 9.09% | Cell survival Avg ± SD (%) ([1]; TXM 13, 0.05 mM): 99.41 ± 8.25% | Cell survival Avg ± SD (%) ([1]; TXM 13, 0.1 mM): 81.45 ± 6.38% | Cell survival Avg ± SD (%) ([1]; TXM 13, 0.5 mM): 77.18 ± 8.17% | Cell survival Avg ± SD (%) ([1]; TXM 13, 1 mM): 76.06 ± 6.81% | Cell survival Avg ± SD (%) ([1]; TXM 13, 2 mM): 53.24 ± 6.8% | MTT absorbance (OD) ([2]; 0.01 mM): 3.13 OD | Cell survival Avg (%) ± SD (%) ([2]; 0.01 mM): 106.44 ± 0.37% | MTT absorbance (OD) ([2]; 0.05 mM): 3.413 OD | Cell survival Avg (%) ± SD (%) ([2]; 0.05 mM): 77.97 ± 0.88% | MTT absorbance (OD) ([2]; 0.1 mM): 3.18 OD | Cell survival Avg (%) ± SD (%) ([2]; 0.1 mM): 69 ± 3.42% | MTT absorbance (OD) ([2]; 0.5 mM): 2.521 OD | Cell survival Avg (%) ± SD (%) ([2]; 0.5 mM): 61.39 ± 3.22% | MTT absorbance (OD) ([2]; 1 mM): 2.548 OD | Cell survival Avg (%) ± SD (%) ([2]; 1 mM): 62 ± 5.58% | MTT absorbance (OD) ([2]; 2 mM): 2.306 OD | Cell survival Avg (%) ± SD (%) ([2]; 2 mM): 62 ± 1.59% | MTT absorbance (OD) ([2]; 5 mM): 1.388 OD | activity at 10 µM [2]: 91.2% | activity at 2000 µM [2]: 67.3% | activity at 50 µM ([2]; 0.05 mM): 99.4% | activity at 100 µM ([2]; 0.1 mM): 92.7% | activity at 500 µM ([2]; 0.5 mM): 73.4% | activity at 1000 µM ([2]; 1 mM): 74.3% | activity at 5000 µM ([2]; 5 mM): 40.2% | PpIX synthesis compared with ALA [3]: greater PpIX synthesis in A431 cells than did ALA | Cell survival Avg (%) ± SD (%) ([4]; 0.01 mM): 113.29 ± 13.51% | Cell survival Avg (%) ± SD (%) ([4]; 0.05 mM): 98.47 ± 13.03% | Cell survival Avg (%) ± SD (%) ([4]; 0.1 mM): 92.42 ± 13.86% | Cell survival Avg (%) ± SD (%) ([4]; 0.5 mM): 91.41 ± 9.04% | Cell survival Avg (%) ± SD (%) ([4]; 1 mM): 80.78 ± 5.6% | Cell survival Avg (%) ± SD (%) ([4]; 2 mM): 86.12 ± 5.37% | Sebaceous gland morphology after irradiation [5]: destroyed partially or wholly | Epidermis histology (H&E) after irradiation [5]: both necrosis and rejuvenation | Cell survival Avg (%) ± SD (%) ([6]; A431, 0.01 mM): 101.04 ± 0.88% | Cell survival Avg (%) ± SD (%) ([6]; A431, 0.05 mM): 91.32 ± 3.42% | Cell survival Avg (%) ± SD (%) ([6]; A431, 0.1 mM): 86.8 ± 3.22% | Cell survival Avg (%) ± SD (%) ([6]; A431, 0.5 mM): 84.16 ± 5.58% | Cell survival Avg (%) ± SD (%) ([6]; A431, 1 mM): 88.47 ± 4.59% | Cell survival Avg (%) ± SD (%) ([6]; A431, 2 mM): 66.21 ± 4.43%
